Laboratory results reported in ChEMBL document CHEMBL6134778, “Spiro-Azetidine Oxindoles as Long-Acting Injectables for Pre-Exposure Prophylaxis against Respiratory Syncytial Virus Infections” (J Med Chem, 2024).
Converted amounts (≈) assume the structure as drawn.

What was measured:
[1] = Volume of distribution at steady state in Beagle dog at 0.25 mg/kg, iv by LC-MS/MS analysis; format: ADME, organism-based, Canis lupus familiaris; conditions: in vivo, read-out: Vdss
[2] = test system: Canis familiaris; assay: Particle size for the 50th percentile of the cumulative volume distribution in Beagle dog at 20 mg/kg, IM […]; format: ADME, organism-based, Canis lupus familiaris; conditions: in vivo
[3] = test system: Rattus norvegicus; assay: Particle size for the 50th percentile of the cumulative volume distribution in Sprague-Dawley rat at 50 mg/kg, IM […]; format: ADME, organism-based; conditions: in vivo
[4] = test system: HeLa; assay: Cytotoxicity against human HeLa cells assessed as reduction in cell viability at highest concentration measured after 3 days by ATPlite assay; format: toxicity, cell-based; conditions: 72 h, time 3 day
[5] = Bioavailability in Sprague-Dawley rat assessed as dose released at 50 mg/kg, IM measured over 12 weeks by LC-MS/MS analysis; format: ADME, organism-based; conditions: in vivo
[6] = Chromatographic hydrophobicity index, logD of the compound at pH 7.4 by UPLC analysis; format: physicochemical; conditions: buffer
[7] = test system: Respiratory syncytial virus; assay: Antiviral activity against RSV A2 harboring eGFP infected in human HeLa cells assessed as reduction in virus replication by measuring 3X protein-adjusted effective concentration for 90% inhibition measured after 3 days in presence of human serum albumin and alpha(1)-acid glycoprotein by laser microscopy; format: functional; conditions: time 3 day
[8] = Intrinsic clearance in human hepatocytes assessed per million cells at 1 uM measured after 180 mins by LC-MS/MS analysis; format: ADME, cell-based, Hepatocyte; conditions: read-out: CLH
[9] = Volume of distribution at steady state in Sprague-Dawley rat at 1 mg/kg, iv by LC-MS/MS analysis; format: ADME, organism-based; conditions: in vivo, read-out: Vdss
[10] = test system: Canis familiaris; assay: Release rate constant in Beagle dog at 20 mg/kg, IM by LC-MS/MS analysis; format: ADME, organism-based, Canis lupus familiaris; conditions: in vivo
[11] = test system: Rattus norvegicus; assay: Release rate constant in Sprague-Dawley rat at 50 mg/kg, IM measured over 12 weeks by LC-MS/MS analysis; format: ADME, organism-based; conditions: in vivo, 2016 h
[12] = test system: Respiratory syncytial virus; assay: Antiviral activity against RSV A2 harboring eGFP infected in human HeLa cells assessed as reduction in virus replication measured after 3 days by laser microscopy; format: functional, organism-based; conditions: 72 h
[13] = Equilibrium solubility of the compound […] at pH 7 measured after 3 days by LC-MS/MS analysis; format: physicochemical; conditions: time 3 day
[14] = Clearance in Sprague-Dawley rat at 1 mg/kg, iv by LC-MS/MS analysis; format: ADME, organism-based; conditions: in vivo
[15] = Intrinsic clearance in human liver microsomes assessed per mg protein at 1 uM measured after 60 mins in presence of NADPH by LC-MS/MS analysis; format: ADME, Microsome; conditions: read-out: CLH
[16] = Thermodynamic solubility in aqueous buffer at pH 7 incubated for 24 hrs by UPLC analysis; format: physicochemical; conditions: read-out: Therm_solubility
[17] = Bioavailability in Beagle dog assessed as dose released at 20 mg/kg, IM by LC-MS/MS analysis; format: ADME, organism-based, Canis lupus familiaris; conditions: in vivo
[18] = Clearance in Beagle dog at 0.25 mg/kg, iv by LC-MS/MS analysis; format: ADME, organism-based, Canis lupus familiaris; conditions: in vivo
[19] = Clearance in Sprague-Dawley rat at 2.5 mg/kg, iv by LC-MS/MS analysis; format: ADME, organism-based; conditions: in vivo
[20] = Volume of distribution at steady state in Sprague-Dawley rat at 2.5 mg/kg, iv by LC-MS/MS analysis; format: ADME, organism-based; conditions: in vivo, read-out: Vdss

| SMILES | Vd [1] [L/kg] | Particle size (D50) [2] [um] | Median particle size (D50) [3] [um] | Activity [4] | bioavailability [5] [%] | CHI [6] | protein-adjusted EC90 [7] [ng/mL] | hepatocyte CLint at 1 µM [8] [µL/min/1e6 cells] | Vd [9] [L/kg] | Ka [10] [h⁻¹] | Ka [11] [h⁻¹] | EC50 [12] [nM] | solubility at 72 h [13] [µM] | clearance [14] [mL/min/kg] | microsomal CLint at 1 µM [15] [µL/min/mg] | solubility thermodynamic at 24 h [16] [µg/mL] | bioavailability [17] [%] | clearance [18] [mL/min/kg] | clearance [19] [mL/min/kg] | Vd [20] [L/kg] |
| --- | --- | --- | --- | --- | --- | --- | --- | --- | --- | --- | --- | --- | --- | --- | --- | --- | --- | --- | --- | --- |
| O=C1N(Cc2nc3cc(Cl)ccc3n2CCCC(F)(F)F)c2cnccc2C12CN(S(=O)(=O)C1CC1)C2 | 2.65 | 15.6 | 15.6 | Non-toxic | 88 | 2.81 | 8.2 | < 1.2 | 2.48 | 0.01 | 0.003 | 0.43 | < 0.13 | 43.5 | < 7.7 | < 0.1 | 93 | 0.99 |  |  |
| CC(C)C(=O)N1CC2(C1)C(=O)N(Cc1nc3cc(Cl)ccc3n1CCCCF)c1cnccc12 | 0.82 | 5.43 | 9.11 | Non-toxic | 142 | 2.14 | 17 | < 1.2 | 5.3 | 0.033 | 0.013 | 1 | 361 (≈ 175 µg/mL) | 26.3 | < 7.7 | 44 (≈ 90.9 µM) | 122 | 11.8 |  |  |
| CC(C)NC(=O)N1CC2(C1)C(=O)N(Cc1nc3cc(Cl)ccc3n1CCCC#N)c1ccccc12 | 0.56 | 5.34 | 5.48 | Non-toxic | 21 | 2.37 | 60 | 1.5 |  | 0.001 | 0 | 0.58 | < 0.25 |  | < 7.7 | < 0.1 | 51 | 4.9 | 21 | 3.2 |
